Patent US10543212B2, “Substituted amines for treating cardiac diseases” (Cardurion Pharmaceuticals, LLC, priority 2017, dated 2020)

target: T1, Full-length, GST-tagged, human CaMKIIδ (Homo sapiens, UniProt Q13557); assay: CaMKIIδ binding assay (TR-FRET with BODIPY-labeled probe ligand); conditions: CaMKIIδ binding assay, results of Table 2
T1 construct: Full-Length, Glutathione-S-Transferase(GST)-Tagged, Human CaMKIIδ was purchased from Carna Biosciences; purchased Carna Biosciences 02-111
How it was run: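 Compounds were tested as 4-fold, eight-point series for 1 hr at room temperature, and IC50 was obtained by logistic fitting against a 3 μM parent-compound control. Signal came from displacement of a 300 nM BODIPY ligand from 0.5 nM GST-CaMKIIδ, detected via Tb-anti-GST in calmodulin/Ca2+ (pH 7.6).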

T1 sequence (Q13557 1-478 isoform Q13557-12): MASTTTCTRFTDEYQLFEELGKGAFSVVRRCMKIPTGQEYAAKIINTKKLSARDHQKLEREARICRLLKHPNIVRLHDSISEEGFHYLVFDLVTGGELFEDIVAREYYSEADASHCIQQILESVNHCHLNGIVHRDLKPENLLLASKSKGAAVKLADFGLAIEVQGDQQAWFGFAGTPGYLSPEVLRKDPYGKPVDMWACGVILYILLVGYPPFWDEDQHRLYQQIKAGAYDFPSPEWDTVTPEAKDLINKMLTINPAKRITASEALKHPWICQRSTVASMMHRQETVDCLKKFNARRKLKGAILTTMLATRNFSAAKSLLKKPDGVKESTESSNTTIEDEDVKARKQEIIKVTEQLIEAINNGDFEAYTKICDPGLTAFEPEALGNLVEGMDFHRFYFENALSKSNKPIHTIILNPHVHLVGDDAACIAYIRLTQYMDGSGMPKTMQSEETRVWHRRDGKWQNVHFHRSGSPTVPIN

SMILES | IC50 [nM]
COc1cc2c(cc1Nc1ncc(-c3ccc(Cl)c(O[C@@H](C)Cn4cnnn4)c3)cn1)CN(C(=O)CN(C)C)CC2 [Example 464, (S)-1-(7-((5-(3-((1-(1H-tetrazol-1-yl)propan-2-yl)oxy)-4-chlorophenyl)pyrimidin-2-yl)amino)-6-methoxy-3,4-dihydroisoquinolin-2(1H)-yl)-2-(dimethylamino)ethan-1-one] | < 10
COc1cc2c(cc1Nc1ncc(-c3ccc(Cl)c(O[C@@H](C)Cn4cnnn4)c3)cn1)CN(C1COC1)CC2 [Example 463, (S)-N-(5-(3-((1-(1H-tetrazol-1-yl)propan-2-yl)oxy)-4-chlorophenyl)pyrimidin-2-yl)-6-methoxy-2-(oxetan-3-yl)-1,2,3,4-tetrahydroisoquinolin-7-amine] | < 10
C[C@@H](Cn1cnnn1)Oc1cc(-c2cnc(Nc3cn(C4CCN(CC5COC5)CC4)nc3C(F)(F)F)nc2)ccc1Cl [Example 489, (S)-5-(3-((1-(1H-tetrazol-1-yl)propan-2-yl)oxy)-4-chlorophenyl)-N-(1-(1-(oxetan-3-ylmethyl)piperidin-4-yl)-3-(trifluoromethyl)-1H-pyrazol-4-yl)pyrimidin-2-amine] | < 10
C[C@@H](Cn1cnnn1)Oc1cc(-c2cnc(Nc3cn(C4CCN(C)CC4)nc3C(F)(F)F)nc2)ccc1Cl [Example 487, (S)-5-(3-((1-(1H-tetrazol-1-yl)propan-2-yl)oxy)-4-chlorophenyl)-N-(1-(1-methylpiperidin-4-yl)-3-(trifluoromethyl)-1H-pyrazol-4-yl)pyrimidin-2-amine] | < 10
COC(=O)c1ccc(OC)c(Nc2ncc(-c3ccc(Cl)c(O[C@@H](C)Cn4cnnn4)c3)cn2)c1 [Example 526, methyl (S)-3-((5-(3-((1-(1H-tetrazol-1-yl)propan-2-yl)oxy)-4-chlorophenyl)pyrimidin-2-yl)amino)-4-methoxybenzoate] | 10 to 100
C[C@@H](Cn1cnnn1)Oc1cc(-c2cnc(Nc3cn(C4CCN(CC5CC5)CC4)nc3C(F)(F)F)nc2)ccc1Cl [Example 549, (S)-5-(3-((1-(1H-tetrazol-1-yl)propan-2-yl)oxy)-4-chlorophenyl)-N-(1-(1-(cyclopropylmethyl)piperidin-4-yl)-3-(trifluoromethyl)-1H-pyrazol-4-yl)pyrimidin-2-amine] | < 10
COc1cc(C2CCCN(C3COC3)C2)ccc1Nc1ncc(-c2ccc(Cl)c(O[C@@H](C)Cn3cnnn3)c2)cn1 (stereo partly drawn) [Example 494, 5-(3-(((S)-1-(1H-tetrazol-1-yl)propan-2-yl)oxy)-4-chlorophenyl)-N-(2-methoxy-4-(1-(oxetan-3-yl)piperidin-3-yl)phenyl)pyrimidin-2-amine] | < 10

same assay, conditions: CaMKIIδ binding assay; activity class per Table 2

SMILES | IC50 [nM]
C[C@@H](Cn1cnnn1)Oc1cc(-c2cnc(Nc3cn(CCNC(N)=O)nc3C(F)(F)F)nc2)ccc1Cl [Example 887, (S)-1-(2-(4-((5-(3-((1-(1H-tetrazol-1-yl)propan-2-yl)oxy)-4-chlorophenyl)pyrimidin-2-yl)amino)-3-(trifluoromethyl)-1H-pyrazol-1-yl)ethyl)urea] | 10 to 100
CCOC(=O)C1(n2cc(Nc3ncc(-c4ccc(Cl)c(O[C@@H](C)Cn5cnnn5)c4)cn3)c(OCC(F)(F)F)n2)CCC1 [Example 915, ethyl (S)-1-(4-((5-(3-((1-(1H-tetrazol-1-yl)propan-2-yl)oxy)-4-chlorophenyl)pyrimidin-2-yl)amino)-3-(2,2,2-trifluoroethoxy)-1H-pyrazol-1-yl)cyclobutane-1-carboxylate] | < 10
CO[C@H]1CC[C@H](N2CC3(CC(n4cc(Nc5ncc(-c6ccc(Cl)c(O[C@@H](C)Cn7cnnn7)c6)cn5)c(C(C)C)n4)C3)C2)CC1 [Example 980, 5-(3-(((S)-1-(1H-tetrazol-1-yl)propan-2-yl)oxy)-4-chlorophenyl)-N-(3-isopropyl-1-(2-((1r,4r)-4-methoxycyclohexyl)-2-azaspiro[3.3]heptan-6-yl)-1H-pyrazol-4-yl)pyrimidin-2-amine] | < 10
C[C@@H](Cn1cnnn1)Oc1cc(-c2cnc(Nc3cn(CCNS(C)(=O)=O)nc3C(F)(F)F)nc2)ccc1Cl [Example 884, (S)-N-(2-(4-((5-(3-((1-(1H-tetrazol-1-yl)propan-2-yl)oxy)-4-chlorophenyl)pyrimidin-2-yl)amino)-3-(trifluoromethyl)-1H-pyrazol-1-yl)ethyl)methanesulfonamide] | 10 to 100
[2H]C1(N2CC3(CC(n4cc(Nc5ncc(-c6ccc(Cl)c(O[C@@H](C)Cn7cnnn7)c6)cn5)c(OCC(F)(F)F)n4)C3)C2)CCOCC1 [Example 944, 5-(4-chloro-3-{[(2S)-1-(1H-tetrazol-1-yl)propan-2-yl]oxy}phenyl)-N-(1-{2-[(4-^2H)tetrahydro-2H-pyran-4-yl]-2-azaspiro[3.3]heptan-6-yl}-3-(2,2,2-trifluoroethoxy)-1H-pyrazol-4-yl)pyrimidin-2-amine] | < 10

same assay, conditions: Table 2; CaMKIIδ binding assay, activity given as class A/B/C

SMILES | IC50 [nM]
CC(O)Cn1cc(Nc2ncc(-c3ccc(Cl)c(O[C@@H](C)Cn4cnnn4)c3)cn2)c(OCC(F)(F)F)n1 (stereo partly drawn) [Example 799, 1-(4-((5-(3-(((S)-1-(1H-tetrazol-1-yl)propan-2-yl)oxy)-4-chlorophenyl)pyrimidin-2-yl)amino)-3-(2,2,2-trifluoroethoxy)-1H-pyrazol-1-yl)propan-2-ol] | < 10
C[C@@H](Cn1cnnn1)Oc1cc(-c2cnc(Nc3cn([C@H]4CC[C@@H](N5CCOCC5)CC4)nc3OCC(F)F)nc2)ccc1F [Example 834, 5-(3-(((S)-1-(1H-tetrazol-1-yl)propan-2-yl)oxy)-4-fluorophenyl)-N-(3-(2,2-difluoroethoxy)-1-(cis-4-morpholinocyclohexyl)-1H-pyrazol-4-yl)pyrimidin-2-amine] | 10 to 100
C[C@@H](Cn1cnnn1)Oc1cc(-c2cnc(Nc3cn(C4CCNCC4)nc3OCCF)nc2)ccc1Cl [Example 824, (S)-5-(3-((1-(1H-tetrazol-1-yl)propan-2-yl)oxy)-4-chlorophenyl)-N-(3-(2-fluoroethoxy)-1-(piperidin-4-yl)-1H-pyrazol-4-yl)pyrimidin-2-amine] | < 10
C[C@@H](Cn1cnnn1)Oc1cc(-c2cnc(Nc3cn(CCCCO)nc3OCC(F)(F)F)nc2)ccc1Cl [Example 783, (S)-4-(4-((5-(3-((1-(1H-tetrazol-1-yl)propan-2-yl)oxy)-4-chlorophenyl)pyrimidin-2-yl)amino)-3-(2,2,2-trifluoroethoxy)-1H-pyrazol-1-yl)butan-1-ol] | < 10
Cc1noc(C)c1Nc1ncc(-c2ccc(Cl)c(O[C@@H](C)Cn3cnnn3)c2)cn1 [Example 747, (S)-N-(5-(3-((1-(1H-tetrazol-1-yl)propan-2-yl)oxy)-4-chlorophenyl)pyrimidin-2-yl)-3,5-dimethylisoxazol-4-amine] | 10 to 100
CCn1cc(Nc2ncc(-c3ccc(C#N)c(O[C@@H](C)Cn4cnnn4)c3)cn2)c(OCC(F)(F)F)n1 [Example 764, (S)-2-((1-(1H-tetrazol-1-yl)propan-2-yl)oxy)-4-(2-((1-ethyl-3-(2,2,2-trifluoroethoxy)-1H-pyrazol-4-yl)amino)pyrimidin-5-yl)benzonitrile] | < 10
Cc1ccc(-c2cnc(Nc3cn([C@H]4CC[C@H](N5CCOCC5)CC4)nc3C(F)(F)F)nc2)cc1O[C@@H](C)Cn1cnnn1 [Example 810, 5-(3-(((S)-1-(1H-tetrazol-1-yl)propan-2-yl)oxy)-4-methylphenyl)-N-(1-(trans-4-morpholinocyclohexyl)-3-(trifluoromethyl)-1H-pyrazol-4-yl)pyrimidin-2-amine] | < 10
C[C@@H](Cn1cnnn1)Oc1cc(-c2cnc(Nc3cn(CC(F)F)nc3OCC(F)(F)F)nc2)ccc1Cl [Example 760, (S)-5-(3-((1-(1H-tetrazol-1-yl)propan-2-yl)oxy)-4-chlorophenyl)-N-(1-(2,2-difluoroethyl)-3-(2,2,2-trifluoroethoxy)-1H-pyrazol-4-yl)pyrimidin-2-amine] | < 10
CCn1ncc(Nc2ncc(-c3ccc(Cl)c(O[C@@H](C)Cn4cnnn4)c3)cn2)c1C(=O)N1CCOCC1 [Example 865, (S)-(4-((5-(3-((1-(1H-tetrazol-1-yl)propan-2-yl)oxy)-4-chlorophenyl)pyrimidin-2-yl)amino)-1-ethyl-1H-pyrazol-5-yl)(morpholino)methanone] | ≥ 100

same assay, conditions: Table 2; activity class for CaMKIIδ

SMILES | IC50 [nM]
COc1nc(N2CCN(C3CCC(F)(F)CC3)CC2)ccc1Nc1ncc(-c2ccc(Cl)c(O[C@@H](C)Cn3cnnn3)c2)cn1 [Example 636, (S)-5-(3-((1-(1H-tetrazol-1-yl)propan-2-yl)oxy)-4-chlorophenyl)-N-(6-(4-(4,4-difluorocyclohexyl)piperazin-1-yl)-2-methoxypyridin-3-yl)pyrimidin-2-amine] | 10 to 100
COc1cc(N2CCCN(C3CCOCC3)CC2)ccc1Nc1ncc(-c2ccc(Cl)c(O[C@@H](C)Cn3cnnn3)c2)cn1 [Example 693, (S)-5-(3-((1-(1H-tetrazol-1-yl)propan-2-yl)oxy)-4-chlorophenyl)-N-(2-methoxy-4-(4-(tetrahydro-2H-pyran-4-yl)-1,4-diazepan-1-yl)phenyl)pyrimidin-2-amine] | < 10
COc1ccc(N2CC(N3CCOCC3)C2)cc1Nc1ncc(-c2ccc(Cl)c(O[C@@H](C)Cn3cnnn3)c2)cn1 [Example 595, (S)-5-(3-((1-(1H-tetrazol-1-yl)propan-2-yl)oxy)-4-chlorophenyl)-N-(2-methoxy-5-(3-morpholinoazetidin-1-yl)phenyl)pyrimidin-2-amine] | 10 to 100
C[C@@H](Cn1cnnn1)Oc1cc(-c2cnc(Nc3cn(CCNC(=O)c4ccccc4)nc3C(F)(F)F)nc2)ccc1Cl [Example 630, (S)-N-(2-(4-((5-(3-((1-(1H-tetrazol-1-yl)propan-2-yl)oxy)-4-chlorophenyl)pyrimidin-2-yl)amino)-3-(trifluoromethyl)-1H-pyrazol-1-yl)ethyl)benzamide] | ≥ 100
